Data set [1] concerns p6/Gluc (HEVΔORF2/3[Gluc]) replicon, KernowC1p6 genotype 3. In words: Dose titration against p6/Gluc replicon in Huh7 cells, Gaussia luciferase readout. The data set is classed as cell-based, hepatitis E virus. How it is done: Gaussia luciferase assays.
Statistics—calculation of IC50. Half maximal inhibitory concentrations were calculated by graphing dose-titration data as nonlinear curve fits with three parameters using GraphPad Prism (v8.1.2).
For orientation: Replicon systems follow genome replication, usually without infectious particles.

The next data set deals with full-length KernowC1p6. Nature of the data set: RT-qPCR of HEV RNA, full-length KernowC1p6 in Huh7 cells. The data set is classed as cell-based, hepatitis E virus. As to conditions: 6.25-25 μM isocotoin, day 6. The method, then: Quantification of HEV RNA by RT-qPCR Assay. Huh7 cells were seeded 42,000 cells/well in 24-well plates. One day post-seeding, the cells were transfected with 10 ng/well KernowC1p6 or KernowC1p6-GAD in vitro transcribed RNA. The next day, the medium on the cells transfected with KernowC1p6 was changed to 0.1% DMSO medium containing 25 μM, 12.5 μM, 6.25 μM, or 0 μM isocotoin. The negative control cells transfected with KernowC1p6-GAD were maintained in medium with 0.1% DMSO. The media on the cells was changed every 2 days to fresh drug-containing or DMSO-containing media. On day 6, cells were harvested and lysed in RLT buffer using 350 μL per well. Cell lysates were homogenized by pipetting 6-7 times with a needle syringe. Total RNA was extracted using BioBasic RNA MiniPreps SuperKit (Amherst, N.Y.). RT-qPCR was performed on the samples using qScript XLT 1-Step RT-qPCR ToughMix (Quanta Bio) according to the manufacturer's instructions. In vitro transcribed KernowC1p6 RNA of known concentration was serially diluted 1:10 and included as controls to generate a standard curve to calculate absolute RNA copies/μL in the samples.
On the technique in general: In qPCR the cycle at which signal appears reflects the starting amount.

For data set [2], the system named is translation of T7-tagBFP-Gluc. Nature of the data set: Translation inhibition assay (T7-tagBFP-Gluc RNA in Huh7 cells). The data set is classed as cell-based. As to conditions: 4 days. An excerpt:
Generation of T7-tagBFP-Gluc. To make the T7-TagBFP-GLuc construct, SP6-TagBFP-2A-FLuc was used as a template and the primers PU-O-6099 and PU-O-6100 were designed to partially anneal immediately upstream and downstream of the SP6 promoter. The unbound portions of PU-O-6099 and PU-O-6100 contained the T7 promoter sequence. […] Next, PCR amplification of the T7-TagBFP-2A backbone was completed using the Q5® High-Fidelity DNA Polymerase and PU-O-6101 and PU-O-6102 as the primers. […] The Gluc insert was then ligated to the T7-TagBFP-2A backbone using the In-Fusion® HD Cloning Kit.
Translation Inhibition Assay. Huh7 cells were seeded at 6,250 cells per well in 96-well format. The cells were then transfected with 50 ng T7-TagBFP-Gluc in vitro transcribed RNA per well. Five hours post-transfection, transfection medium was changed to medium containing isocotoin, ribavirin, cycloheximide, or roclagamide at 6 or 7 different concentrations. DMSO concentration was kept constant in all the wells at 0.125%. For each drug dose, triplicate wells were tested. On day four post-transfection, a luciferase assay was performed on supernatant media to measure Gluc expression.

A further data set deals with Huh7 cells. In words: ATP-based cell viability assay (CellTiterGlo). As to conditions: Huh7 cells, day 4. How it is done: Measurement of Cytotoxicity by CellTiterGlo Assay. […] Readout was performed using a Berthold luminometer.
Background: Cellular ATP, detected with luciferase, serves as a proxy for viable cell number.

A further data set concerns Jc1(p7nsGluc2A) (HCV). The data set is classed as cell-based, hepatitis C virus. As to conditions: Gluc, RLU normalized to untreated.
In data set [3] the test system is YFV17D-Gluc-BSD-Ires (YFV17D). The data set is classed as cell-based, yellow fever virus 17-D vaccine strain.
A further data set deals with Sar55/Gluc (genotype 1). In words: Dose titration against Sar55/Gluc replicon.
The next data set concerns p6/Gluc[F470S]. Nature of the data set: Dose titration against mutant replicon p6/Gluc[F470S].
The subject of a further data set is p6/Gluc[G1634R]. In words: Dose titration against mutant replicon p6/Gluc[G1634R].
The target in the next data set is HSP90AA1 (Hsp90α1) (Homo sapiens, UniProt P07900). Nature of the data set: Two-dimensional thermal proteome profiling (CETSA) in crude cell extract. As to conditions: isocotoin 0.5-30 μM, 37-66.3 °C.
The target in the next data set is HSP90AB1 (Hsp90β) (Homo sapiens, UniProt P08238). The description is as above. As to conditions: isocotoin 0.5-30 μM, 37-66.3 °C.
HSP90AB1 (Hsp90β), sequence (P08238 whole entry): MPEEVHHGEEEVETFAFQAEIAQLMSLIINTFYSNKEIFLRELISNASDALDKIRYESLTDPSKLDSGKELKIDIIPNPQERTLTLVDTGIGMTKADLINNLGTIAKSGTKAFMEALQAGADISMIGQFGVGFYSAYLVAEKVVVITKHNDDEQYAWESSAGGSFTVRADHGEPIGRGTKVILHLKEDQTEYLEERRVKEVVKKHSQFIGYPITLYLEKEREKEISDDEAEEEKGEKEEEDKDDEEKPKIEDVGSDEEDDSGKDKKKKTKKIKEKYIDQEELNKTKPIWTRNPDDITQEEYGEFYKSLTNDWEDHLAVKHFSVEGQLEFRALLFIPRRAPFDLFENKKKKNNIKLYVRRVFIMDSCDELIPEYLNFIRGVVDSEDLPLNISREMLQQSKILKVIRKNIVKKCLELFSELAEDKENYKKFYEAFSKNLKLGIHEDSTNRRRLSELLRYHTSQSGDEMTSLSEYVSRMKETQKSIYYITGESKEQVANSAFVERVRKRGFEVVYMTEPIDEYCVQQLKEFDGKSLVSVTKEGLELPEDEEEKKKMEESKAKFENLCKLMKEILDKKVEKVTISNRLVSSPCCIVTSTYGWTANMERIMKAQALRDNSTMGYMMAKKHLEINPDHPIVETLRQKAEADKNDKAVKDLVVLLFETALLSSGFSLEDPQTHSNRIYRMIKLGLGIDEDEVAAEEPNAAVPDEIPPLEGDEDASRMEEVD
The next data set has as its target T1, STOML2 (Homo sapiens, UniProt Q9UJZ1).
T1 sequence (Q9UJZ1 29-356): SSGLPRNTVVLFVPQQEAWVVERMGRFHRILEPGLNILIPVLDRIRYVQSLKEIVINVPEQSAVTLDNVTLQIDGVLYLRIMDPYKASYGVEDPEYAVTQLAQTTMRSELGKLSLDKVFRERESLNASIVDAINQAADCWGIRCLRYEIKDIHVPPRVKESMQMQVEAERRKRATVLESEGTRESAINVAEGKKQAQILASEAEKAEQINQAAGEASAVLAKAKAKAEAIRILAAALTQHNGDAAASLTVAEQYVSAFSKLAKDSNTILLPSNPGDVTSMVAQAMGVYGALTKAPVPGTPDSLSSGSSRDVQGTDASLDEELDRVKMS
The data set is described as above. As to conditions: isocotoin 0.5-30 μM, 37-66.3 °C.

In the next data set the target is T2, OTC (Homo sapiens, UniProt P00480).
T2 sequence (P00480 33-354): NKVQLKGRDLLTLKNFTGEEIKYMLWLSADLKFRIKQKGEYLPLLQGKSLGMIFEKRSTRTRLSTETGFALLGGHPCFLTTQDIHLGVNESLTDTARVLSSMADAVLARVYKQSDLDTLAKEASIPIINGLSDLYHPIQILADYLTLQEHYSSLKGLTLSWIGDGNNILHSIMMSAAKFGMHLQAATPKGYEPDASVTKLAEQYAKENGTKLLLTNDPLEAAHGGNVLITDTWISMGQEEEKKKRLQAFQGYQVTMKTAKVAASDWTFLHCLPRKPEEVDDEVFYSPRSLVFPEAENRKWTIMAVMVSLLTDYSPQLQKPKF
Described as above. As to conditions: isocotoin 0.5-30 μM, 37-66.3 °C.

For another data set, the system named is HEV. Nature of the data set: In vivo testing in HEV-infected human liver chimeric mice, viral RNA in stool and serum. As to conditions: 50 mg/kg daily intraperitoneally, 7 days.

Molecules are shown by their SMILES. “Also recorded” adds a separate entry of the source.

Consider `COc1cc(O)cc(O)c1C(=O)c1ccccc1` [isocotoin, 4-benzoyl-5-methoxybenzene-1,3-diol], for which the IC50 in [1] (Hepatitis E virus, Huh-7, 96 h) stood at 6.1 µM. For the same compound, the “inhibition of p6/Gluc (HEV) replication, in words” value in [1] (Huh7 cells, supernatant Gluc) is listed as “lower IC50 than ribavirin; also recorded: dose-dependent inhibitory effects; also recorded: dose-dependent inhibition; also recorded: more efficiently than ribavirin; also recorded: inhibits replication; also recorded: to a greater extent than ribavirin”. Moreover, in the data set with full-length KernowC1p6, the “inhibition of full-length KernowC1p6 replication, in words” value was “dose-dependent manner; also recorded: inhibits replication”. Also, the “effect on translation / Gluc levels, in words” value in data set [2] was “did not lead to a significant decrease in Gluc levels; also recorded: do not inhibit translation”. For the same compound, in the data set with Huh7 cells, the “doses at which cytotoxicity was displayed” value was ≥ 25 µM and the “doses up to which no cytotoxicity was displayed” value is “up to 12.5 μM”. Also, the “inhibition of HCV replication, in words” value in the data set on Jc1(p7nsGluc2A) (HCV) was “dose-dependent inhibitory effects; also recorded: to a greater extent than ribavirin”. Further, the “inhibition of YFV17D replication, in words” value in [3] was “dose-dependent inhibitory effects; also recorded: to a greater extent than ribavirin”. Moreover, the “inhibition of Sar55/Gluc replication, in words” value in the data set with Sar55/Gluc (genotype 1) is “lower IC50 than ribavirin; also recorded: inhibits replication”. The “sensitivity of p6/Gluc[F470S], in words” value with p6/Gluc[F470S] is “higher sensitivity to isocotoin than to ribavirin”. The “sensitivity of p6/Gluc[G1634R], in words” value in the data set on p6/Gluc[G1634R] is “higher sensitivity to isocotoin than to ribavirin”. Besides, the “thermal stabilization / soluble protein fraction of HSP90AA1” value on HSP90AA1 (Hsp90α1) is “thermal stabilization; also recorded: among hits showing the greatest increase in soluble protein fraction”. Also, the “thermal stabilization / soluble protein fraction of HSP90AB1” value on HSP90AB1 (Hsp90β) is recorded as “thermal stabilization; also recorded: relatively modest, but identifiable increase”. In addition, the “soluble protein fraction of STOML2” value on STOML2 was “among hits showing the greatest increase in soluble protein fraction”. Further, the “soluble protein fraction of OTC” value at OTC was “among hits showing the greatest increase in soluble protein fraction”. In the data set with HEV, the “viral RNA levels in stool and serum pre- and post-treatment” value is recorded as “not a clear decrease in viral levels; also recorded: did not result in a reduction in viral titers”.

The IC50 is the point on the concentration scale where inhibition reaches its midpoint. Higher therefore signals lower potency.

Source of the values: US20220362276A1, “Small Molecule Inhibitors of Viral Replication” (The Trustees of Princeton University, priority 2019, published 2022).
